Data as given in patent US12239627B2, “Method of treating conditions related to the PGI2 receptor” (Arena Pharmaceuticals, Inc., priority 2014, dated 2025).

Test: Phase 1 multiple ascending dose, dose titration study with healthy subjects (adverse events, tolerated dose)
Assay type: in vivo, human
Settings: for Adverse Events (no. of subjects) leading to Decrease of Dose: Abdominal pain / Adverse Events (no. of subjects) leading to Decrease of Dose: Arthralgia / Adverse Events (no. of subjects) leading to Decrease of Dose: Chest discomfort / Adverse Events (no. of subjects) leading to Decrease of Dose: Chest pain / Adverse Events (no. of subjects) leading to Decrease of Dose: Diarrhoea / Adverse Events (no. of subjects) leading to Decrease of Dose: Dizziness / Adverse Events (no. of subjects) leading to Decrease of Dose: Headache / Adverse Events (no. of subjects) leading to Decrease of Dose: Jaw pain / Adverse Events (no. of subjects) leading to Decrease of Dose: Myalgia / Adverse Events (no. of subjects) leading to Decrease of Dose: Nausea / Adverse Events (no. of subjects) leading to Decrease of Dose: Palpitations / Adverse Events (no. of subjects) leading to Decrease of Dose: Priapism / Adverse Events (no. of subjects) leading to Decrease of Dose: Vomiting: Cohort 3, twice daily
Method: This study was a phase 1, randomized, double-blind, placebo-controlled, multiple-dose, dose titration study. A titration interval of 6 days was employed, with each dose being administered for at least 5 days. One goal was to determine the effect of dose titration on adverse effects.
In each of two subject cohorts, Cohort 1 and Cohort 2, subjects were treated at each dose level for duration of 5 days with exception of the last dose level which included 7 days of treatment.
The protocol was amended to provide for an additional cohort, Cohort 3, in order to evaluate a different dose escalation regimen, as disclosed below.
Cohorts 1 and 2: Two groups of 15 subjects were enrolled and randomized to receive placebo (5 subjects per Cohort) or a starting dose of 0.05 mg Compound 1 (10 subjects per Cohort) on Day I. Once daily (q.d.) dosing continued through 5 days. If tolerated, the next dose escalation (placebo or 0.1 mg q.d. Compound 1) occurred on Day 6 and this dose was administered daily through Day 10.
Subsequent dose escalations were to occur in the same manner every 6th day for up to 3 additional dose escalations if tolerated (placebo or 0.2, 0.3, and 0.4 mg Compound 1) with the final dose maintained for a duration of 7 days. The dose could be decreased (“de-escalated”) or increased (“re-escalated”) based on assessment of safety and tolerability.
Cohort 3: One group of 25 subjects (S placebo and 20 active) were enrolled and randomized to receive a starting dose of 0.01 mg Compound 1 twice daily or placebo on Day 1. Twice daily dosing continued through 5 days. If tolerated, the next dose escalation (placebo or Compound 1 0.02 mg twice daily) occurred on Day 6 and this dose was administered daily through Day 10. Subsequent dose escalations were to occur in the same manner every 6th day for up to 4 additional dose escalations if tolerated (placebo or 0.03, 0.04. 0.05, and 0.07 mg twice daily Compound 1). The dose could be decreased (“de-escalated”) or increased (“re-escalated”) based on assessment of safety and tolerability. The doses tested in this cohort were 0.01, 0.02, 0.03, 0.04, 0.05, and 0.07 mg administered twice daily for a total daily dose of 0.02, 0.04, 0.06, 0.08, 0.1, and 0.14 mg, respectively.
Compound 1 capsules were provided as 0.01 mg (all Cohorts) and 0.1 mg (Cohorts 1 and 2 only) strengths.

O=C(O)COC[C@H]1CC[C@H](COC(=O)N(c2ccccc2)c2ccc(Cl)cc2)CC1 [Compound 1, 2-(((1r,4r)-4-(((4-chlorophenyl)(phenyl)carbamoyloxy)methyl)cyclohexyl)methoxy)acetic acid]
3 subjects: Adverse Events (no. of subjects) leading to Decrease of Dose: Nausea (0.02 mg (N = 20))
1 subjects: Adverse Events (no. of subjects) leading to Decrease of Dose: Headache (0.01 mg (N = 20)) | Adverse Events (no. of subjects) leading to Decrease of Dose: Myalgia (0.01 mg (N = 20)) | Adverse Events (no. of subjects) leading to Decrease of Dose: Arthralgia (0.02 mg (N = 20)) | Adverse Events (no. of subjects) leading to Decrease of Dose: Chest pain (0.02 mg (N = 20)) | Adverse Events (no. of subjects) leading to Decrease of Dose: Diarrhoea (0.02 mg (N = 20)) | Adverse Events (no. of subjects) leading to Decrease of Dose: Palpitations (0.02 mg (N = 20)) | Adverse Events (no. of subjects) leading to Decrease of Dose: Vomiting (0.02 mg (N = 20)) | Adverse Events (no. of subjects) leading to Decrease of Dose: Abdominal pain (0.03 mg (N = 20)) | Adverse Events (no. of subjects) leading to Decrease of Dose: Chest discomfort (0.03 mg (N = 20)) | Adverse Events (no. of subjects) leading to Decrease of Dose: Diarrhoea (0.03 mg (N = 20)) | Adverse Events (no. of subjects) leading to Decrease of Dose: Headache (0.03 mg (N = 20)) | Adverse Events (no. of subjects) leading to Decrease of Dose: Myalgia (0.03 mg (N = 20)) | Adverse Events (no. of subjects) leading to Decrease of Dose: Nausea (0.03 mg (N = 20)) | Adverse Events (no. of subjects) leading to Decrease of Dose: Priapism (0.03 mg (N = 20)) | Adverse Events (no. of subjects) leading to Decrease of Dose: Headache (0.04 mg (N = 12)) | Adverse Events (no. of subjects) leading to Decrease of Dose: Abdominal pain (0.05 mg (N = 8)) | Adverse Events (no. of subjects) leading to Decrease of Dose: Dizziness (0.05 mg (N = 8)) | Adverse Events (no. of subjects) leading to Decrease of Dose: Arthralgia (0.07 mg (N = 4)) | Adverse Events (no. of subjects) leading to Decrease of Dose: Headache (0.07 mg (N = 4)) | Adverse Events (no. of subjects) leading to Decrease of Dose: Jaw pain (0.07 mg (N = 4)) | Adverse Events (no. of subjects) leading to Decrease of Dose: Nausea (0.07 mg (N = 4))
0.04 mg-20 subjects: Subjects who received 0.04 mg as highest dose for at least 3 days (Cohort 3)
0 subjects: Adverse Events (no. of subjects) leading to Decrease of Dose: Abdominal pain (0.01 mg (N = 20)) | Adverse Events (no. of subjects) leading to Decrease of Dose: Arthralgia (0.01 mg (N = 20)) | Adverse Events (no. of subjects) leading to Decrease of Dose: Chest discomfort (0.01 mg (N = 20)) | Adverse Events (no. of subjects) leading to Decrease of Dose: Chest pain (0.01 mg (N = 20)) | Adverse Events (no. of subjects) leading to Decrease of Dose: Diarrhoea (0.01 mg (N = 20)) | Adverse Events (no. of subjects) leading to Decrease of Dose: Dizziness (0.01 mg (N = 20)) | Adverse Events (no. of subjects) leading to Decrease of Dose: Jaw pain (0.01 mg (N = 20)) | Adverse Events (no. of subjects) leading to Decrease of Dose: Nausea (0.01 mg (N = 20)) | Adverse Events (no. of subjects) leading to Decrease of Dose: Palpitations (0.01 mg (N = 20)) | Adverse Events (no. of subjects) leading to Decrease of Dose: Priapism (0.01 mg (N = 20)) | Adverse Events (no. of subjects) leading to Decrease of Dose: Vomiting (0.01 mg (N = 20)) | Adverse Events (no. of subjects) leading to Decrease of Dose: Abdominal pain (0.02 mg (N = 20)) | Adverse Events (no. of subjects) leading to Decrease of Dose: Chest discomfort (0.02 mg (N = 20)) | Adverse Events (no. of subjects) leading to Decrease of Dose: Dizziness (0.02 mg (N = 20)) | Adverse Events (no. of subjects) leading to Decrease of Dose: Jaw pain (0.02 mg (N = 20)) | Adverse Events (no. of subjects) leading to Decrease of Dose: Priapism (0.02 mg (N = 20)) | Adverse Events (no. of subjects) leading to Decrease of Dose: Arthralgia (0.03 mg (N = 20)) | Adverse Events (no. of subjects) leading to Decrease of Dose: Chest pain (0.03 mg (N = 20)) | Adverse Events (no. of subjects) leading to Decrease of Dose: Dizziness (0.03 mg (N = 20)) | Adverse Events (no. of subjects) leading to Decrease of Dose: Jaw pain (0.03 mg (N = 20)) | Adverse Events (no. of subjects) leading to Decrease of Dose: Palpitations (0.03 mg (N = 20)) | Adverse Events (no. of subjects) leading to Decrease of Dose: Vomiting (0.03 mg (N = 20)) | Adverse Events (no. of subjects) leading to Decrease of Dose: Abdominal pain (0.04 mg (N = 12)) | Adverse Events (no. of subjects) leading to Decrease of Dose: Arthralgia (0.04 mg (N = 12)) | Adverse Events (no. of subjects) leading to Decrease of Dose: Chest discomfort (0.04 mg (N = 12)) | Adverse Events (no. of subjects) leading to Decrease of Dose: Chest pain (0.04 mg (N = 12)) | Adverse Events (no. of subjects) leading to Decrease of Dose: Diarrhoea (0.04 mg (N = 12)) | Adverse Events (no. of subjects) leading to Decrease of Dose: Jaw pain (0.04 mg (N = 12)) | Adverse Events (no. of subjects) leading to Decrease of Dose: Myalgia (0.04 mg (N = 12)) | Adverse Events (no. of subjects) leading to Decrease of Dose: Nausea (0.04 mg (N = 12)) | Adverse Events (no. of subjects) leading to Decrease of Dose: Palpitations (0.04 mg (N = 12)) | Adverse Events (no. of subjects) leading to Decrease of Dose: Priapism (0.04 mg (N = 12)) | Adverse Events (no. of subjects) leading to Decrease of Dose: Vomiting (0.04 mg (N = 12)) | Adverse Events (no. of subjects) leading to Decrease of Dose: Arthralgia (0.05 mg (N = 8)) | Adverse Events (no. of subjects) leading to Decrease of Dose: Chest discomfort (0.05 mg (N = 8)) | Adverse Events (no. of subjects) leading to Decrease of Dose: Chest pain (0.05 mg (N = 8)) | Adverse Events (no. of subjects) leading to Decrease of Dose: Diarrhoea (0.05 mg (N = 8)) | Adverse Events (no. of subjects) leading to Decrease of Dose: Headache (0.05 mg (N = 8)) | Adverse Events (no. of subjects) leading to Decrease of Dose: Jaw pain (0.05 mg (N = 8)) | Adverse Events (no. of subjects) leading to Decrease of Dose: Myalgia (0.05 mg (N = 8)) | Adverse Events (no. of subjects) leading to Decrease of Dose: Nausea (0.05 mg (N = 8)) | Adverse Events (no. of subjects) leading to Decrease of Dose: Palpitations (0.05 mg (N = 8)) | Adverse Events (no. of subjects) leading to Decrease of Dose: Priapism (0.05 mg (N = 8)) | Adverse Events (no. of subjects) leading to Decrease of Dose: Vomiting (0.05 mg (N = 8)) | Adverse Events (no. of subjects) leading to Decrease of Dose: Abdominal pain (0.07 mg (N = 4)) | Adverse Events (no. of subjects) leading to Decrease of Dose: Chest discomfort (0.07 mg (N = 4)) | Adverse Events (no. of subjects) leading to Decrease of Dose: Chest pain (0.07 mg (N = 4)) | Adverse Events (no. of subjects) leading to Decrease of Dose: Diarrhoea (0.07 mg (N = 4)) | Adverse Events (no. of subjects) leading to Decrease of Dose: Dizziness (0.07 mg (N = 4)) | Adverse Events (no. of subjects) leading to Decrease of Dose: Myalgia (0.07 mg (N = 4)) | Adverse Events (no. of subjects) leading to Decrease of Dose: Palpitations (0.07 mg (N = 4))
0.10 mg-6 subjects: Subjects with Final Compound 1 Total Daily Dose of 0.10 mg (Cohort 3)
0.08 mg-2 subjects: Subjects with Final Compound 1 Total Daily Dose of 0.08 mg (Cohort 3)
0.08 mg-11 subjects: Subjects who received 0.08 mg as highest dose for at least 3 days (Cohort 3)
0.06 mg-19 subjects: Subjects who received 0.06 mg as highest dose for at least 3 days (Cohort 3)
6 subjects: Adverse Events (no. of subjects) leading to Decrease of Dose: Headache (0.02 mg (N = 20))
2 subjects: Adverse Events (no. of subjects) leading to Decrease of Dose: Myalgia (0.02 mg (N = 20)) | Adverse Events (no. of subjects) leading to Decrease of Dose: Dizziness (0.04 mg (N = 12))
0.10 mg-8 subjects: Subjects who received 0.10 mg as highest dose for at least 3 days (Cohort 3)
0.06 mg-6 subjects: Subjects with Final Compound 1 Total Daily Dose of 0.06 mg (Cohort 3)
0.04 mg-4 subjects: Subjects with Final Compound 1 Total Daily Dose of 0.04 mg (Cohort 3)
0.14 mg-2 subjects: Subjects with Final Compound 1 Total Daily Dose of 0.14 mg (Cohort 3)
0.14 mg-3 subjects: Subjects who received 0.14 mg as highest dose for at least 3 days (Cohort 3)
